We go through five molecules from US20080199449A1, “Methods and Compositions for Use in Treating Vascular Diseases and Conditions” (The General Hospital Corporation, priority 2005, published 2008).

Entries after “also recorded” stand apart in the source; their conditions may differ.

Series [1] relates to gridlock phenotype (atresia of the proximal aorta in grl^m145 mutants). The experiment in a line: Suppression of the gridlock phenotype (restoration of trunk and tail circulation) in grl^m145 mutant embryos. The series is classed as in vivo, zebrafish. The method, then: Screening for suppressors of the gridlock phenotype. The screen was performed as previous described with modifications (Peterson et al., Nature Biotechnology 22:595-599, 2004). Briefly, pairs of homozygous grl^m145 zebrafish were mated, and fertilized eggs were arrayed in 96-well plates containing E3 embryo buffer. At the 6-somite stage, small molecules from the DiverSet E library (Chembridge) were added to each well, yielding a final concentration of 2.5 μM. Embryos were incubated at 28.5° C. for 48 hrs. Circulation to the tail was assessed visually using a dissecting microscope.
Fluorescent microangiography. Fluorescence microangiography was performed as previously described (Weinstein et al., Nature Medicine 1:1143-1147, 1995).

The test system is the same in series [2]. The note with it: whole zebrafish embryos; Peterson et al., Nature Biotechnology 22:595-599, 2004; cited from earlier work.
Series [3] concerns dorsal aorta and cardinal veins. The experiment in a line: Artery-vein morphology in embryos expressing GFP in endothelial cells (fli-1 promoter). Particulars: for Vascular defects at higher doses: doses higher than the 1- to 5 μM suppressing range. The series is classed as in vivo, zebrafish.
The next series relates to zebrafish embryos. As to the kind of experiment: Gross embryonic morphology and lethality after compound exposure. The series is classed as in vivo.

Regarding `COc1ccc(SCCc2ccncc2)cc1.Cl` [GS4012], in series [1] (GS4898 0.75 μM, LY294002 3 μM, wortmannin 0.075 μM, GS4012 0.7 μg/mL (FIG. 1F)), the “Suppression of the gridlock phenotype, single treatment at sub-effective dose” value was “does not suppress”. Also, in series [1] (homozygous grl^m145 mutant zebrafish embryos), the “Suppression of the gridlock phenotype (tail circulation)” value is on record as “suppressed”. Also, in series [2], the “Suppression of the vascular defect in gridlock mutant embryos (earlier screen)” value is “suppresses the vascular defect in gridlock mutant embryos”.
For the molecule `N#CC(=C(/N)Sc1ccccc1N)/C(C#N)=C(\N)Sc1ccccc1N` [U0126], in series [3] (48-hpf fli-1 GFP embryos, GS4898 15 μM, U0126 100 μM, SL327 (FIG. 3E-G)), the “Effect on aorta (artery formation)” value is “either loss or reduction of aorta; also recorded: the aorta is greatly reduced”. Moreover, in series [3] (48-hpf fli-1 GFP embryos, GS4898 15 μM, U0126 100 μM, SL327 (FIG. 3F, G)), the “Effect on vein (posterior/common cardinal vein, vein formation)” value is recorded as “expansion of the common cardinal vein; also recorded: enlarged”.
Take `O=c1cc(N2CCOCC2)oc2c(-c3ccccc3)cccc12` [LY294002]: the “Vascular defects at higher doses” value in series [3] is recorded as “severe vascular defects”.
On to `COC[C@H]1OC(=O)c2coc3c2[C@@]1(C)C1=C(C3=O)[C@@H]2CCC(=O)[C@@]2(C)C[C@H]1OC(C)=O` [wortmannin], for which the “Vascular defects at higher doses” value in series [3] is on record as “severe vascular defects”.
On to `N#C/C(=C(/N)Sc1ccc(N)cc1)c1ccccc1C(F)(F)F` [SL327], for which the “Gross embryonic morphology, treatment starting at 12-hpf” value with zebrafish embryos (36-hpf embryos, GS4898 10 μM, SL327 60 μM (FIG. 5)) is “moderately deformed tail curvature, but otherwise grossly intact head organogenesis, somitogenesis, and yolk extension”. In the series with zebrafish embryos (treatment of embryos at earlier stages (FIG. 5)), the “Embryonic lethality and gross defects, treatment at stages earlier than 12-hpf” value is “high degree of embryonic lethality and variable gross morphologic defects”.
